According to ChEMBL document CHEMBL1201862, “PubChem BioAssay data set” (2004):
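Exposure lasted 48 hours, with cells grown in 96-well plates and compounds tested at five concentrations. GI50 marks 50% less growth.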 Active and inactive are the calls of the source. Rule as the data show it: active = GI50 up to about 1.1 µM and inactive = higher.

Experiments:
Assay in all cases: growth of human tumour cells (NCI), 48 h
BT-549 = system: BT-549
CAKI-1 = system: CAKI-1
CCRF-CEM = system: CCRF-CEM
HCT-116 = system: HCT-116
HCT-15 = system: HCT-15
HT-29 = system: HT-29
Hs-578T = system: Hs-578T
KM12 = system: KM12
M14 = system: M14
MCF7 = system: MCF7
MDA-MB-231 = system: MDA-MB-231
MDA-N = system: MDA-N
MOLT-4 = system: MOLT-4
PC-3 = system: PC-3
SF-268 = system: SF-268
SNB-19 = system: SNB-19
SW-620 = system: SW-620
T47D = system: T47D
U-251 = system: U-251
UACC-62 = system: UACC-62

SMILES	GI50 (BT-549)	GI50 (CAKI-1)	GI50 (CCRF-CEM)	GI50 (HCT-116)	GI50 (HCT-15) [µM]	GI50 (HT-29)	GI50 (Hs-578T)	GI50 (KM12)	GI50 (M14)	GI50 (MCF7)	GI50 (MDA-MB-231)	GI50 (MDA-N)	GI50 (MOLT-4)	GI50 (PC-3)	GI50 (SF-268)	GI50 (SNB-19)	GI50 (SW-620)	GI50 (T47D)	GI50 (U-251)	GI50 (UACC-62)
CCCCc1ccc(Nc2nc(S)c3ncn(COCCO)c3n2)cc1	56.9 µM (inactive)	> 100 µM (inactive)	25.7 µM (inactive)	65 µM (inactive)	> 100	50.5 µM (inactive)	36.3 µM (inactive)	38 µM (inactive)	44.4 µM (inactive)	24.2 µM (inactive)	15.4 µM (inactive)	41.9 µM (inactive)	33.5 µM (inactive)	32.9 µM (inactive)	> 10 µM (inactive)	31.2 µM (inactive)	69 µM (inactive)	11.6 µM (inactive)	35 µM (inactive)	41.4 µM (inactive)
CCC/C(Cl)=N/OC(=O)Nc1cc(C(F)(F)F)ccc1OC	15.5 µM (inactive)	4.78 µM (inactive)	1.91 µM (inactive)	9.89 µM (inactive)	5.31	20.7 µM (inactive)	27.1 µM (inactive)	18.1 µM (inactive)	4.4 µM (inactive)	12.4 µM (inactive)	13.1 µM (inactive)	12.1 µM (inactive)	2.1 µM (inactive)	16.2 µM (inactive)	16.1 µM (inactive)	17.6 µM (inactive)	3.55 µM (inactive)	6.44 µM (inactive)	17.7 µM (inactive)	15.2 µM (inactive)
CN(C)/C=N/S(=O)(=O)c1nn2c(C=O)c(-c3ccc([N+](=O)[O-])cc3)nc2s1	3.79 µM (inactive)	0.627 µM (active)	0.834 µM (active)	1.67 µM (inactive)	2.94	1.54 µM (inactive)	24.5 µM (inactive)	9.12 µM (inactive)	2.79 µM (inactive)	4.68 µM (inactive)	12.4 µM (inactive)	2.91 µM (inactive)	2.35 µM (inactive)	7.21 µM (inactive)	13.6 µM (inactive)	28.6 µM (inactive)	2.52 µM (inactive)	5.68 µM (inactive)	8.69 µM (inactive)	4.91 µM (inactive)
C=CC(=O)C#Cc1cnc(OC)nc1OC	12.3 µM (inactive)	7.29 µM (inactive)	0.515 µM (active)	9.59 µM (inactive)	10.7	16.1 µM (inactive)	33.3 µM (inactive)	13.4 µM (inactive)	14.9 µM (inactive)	5.13 µM (inactive)	19.8 µM (inactive)	16.4 µM (inactive)	1.69 µM (inactive)	19.8 µM (inactive)	30.1 µM (inactive)	19.1 µM (inactive)	4.95 µM (inactive)	21.7 µM (inactive)	13.9 µM (inactive)	16.1 µM (inactive)
Fc1cc(-c2cc(-c3ccccc3)no2)c(Cl)cc1Cl	18.5 µM (inactive)	34.5 µM (inactive)	10.7 µM (inactive)	13.8 µM (inactive)	36	15.8 µM (inactive)	> 34.8 µM (inactive)	16.2 µM (inactive)	23.1 µM (inactive)	4.25 µM (inactive)	14.1 µM (inactive)	16.1 µM (inactive)	12.4 µM (inactive)	13.7 µM (inactive)	19.4 µM (inactive)	> 40.6 µM (inactive)	20.9 µM (inactive)	14 µM (inactive)	10.3 µM (inactive)	43.2 µM (inactive)
COc1cc(C(c2cc(OC)c(OC)c(OC)c2)N2C(=O)CCC2C(=O)O)cc(OC)c1OC (stereo not given)	> 100 µM (inactive)	> 100 µM (inactive)	> 100 µM (inactive)	> 100 µM (inactive)	> 100	> 100 µM (inactive)	> 100 µM (inactive)	> 100 µM (inactive)	> 100 µM (inactive)	> 100 µM (inactive)	> 100 µM (inactive)	> 100 µM (inactive)	> 100 µM (inactive)	> 100 µM (inactive)	> 100 µM (inactive)	> 100 µM (inactive)	> 100 µM (inactive)	> 100 µM (inactive)	> 100 µM (inactive)	> 100 µM (inactive)
CCCCCCCCCc1cc(O)c(O)cc1CCCCCCCCC	> 10 µM (inactive)	> 10 µM (inactive)	> 10 µM (inactive)	> 10 µM (inactive)	> 10	> 10 µM (inactive)	> 10 µM (inactive)	> 10 µM (inactive)	> 10 µM (inactive)	> 10 µM (inactive)	> 10 µM (inactive)	> 10 µM (inactive)	> 10 µM (inactive)	> 10 µM (inactive)	> 10 µM (inactive)	> 10 µM (inactive)	> 10 µM (inactive)	> 10 µM (inactive)	> 10 µM (inactive)	> 10 µM (inactive)
CC(=O)Oc1c(C)c2c(c3ccccc13)OC(C)(C)C2	24.7 µM (inactive)	24.2 µM (inactive)	24.7 µM (inactive)	18 µM (inactive)	17	18.1 µM (inactive)	21 µM (inactive)	14.5 µM (inactive)	16.4 µM (inactive)	17.5 µM (inactive)	23.9 µM (inactive)	12 µM (inactive)	15.1 µM (inactive)	22.6 µM (inactive)	15.5 µM (inactive)	26.3 µM (inactive)	19.8 µM (inactive)	20.3 µM (inactive)	18.6 µM (inactive)	16.3 µM (inactive)
Cc1cccc(Nc2nc3ccccc3nc2NS(=O)(=O)c2ccc(N)cc2)c1	9.42 µM (inactive)	30.7 µM (inactive)	15.2 µM (inactive)	33.1 µM (inactive)	34.1	48.3 µM (inactive)	49.5 µM (inactive)	26.7 µM (inactive)	37.8 µM (inactive)	24.4 µM (inactive)	36.3 µM (inactive)	45.9 µM (inactive)	11.7 µM (inactive)	29.6 µM (inactive)	63.7 µM (inactive)	31.3 µM (inactive)	17.6 µM (inactive)	34.5 µM (inactive)	20.7 µM (inactive)	38.4 µM (inactive)
CCOC(=O)c1nc2ccccc2nc1Nc1ccc(F)cc1	16.2 µM (inactive)	39.5 µM (inactive)	> 100 µM (inactive)	20.3 µM (inactive)	57.5	> 100 µM (inactive)	10.2 µM (inactive)	> 100 µM (inactive)	> 100 µM (inactive)	> 60.8 µM (inactive)	8.13 µM (inactive)	> 100 µM (inactive)	> 100 µM (inactive)	> 86.9 µM (inactive)	8.39 µM (inactive)	12.1 µM (inactive)	> 100 µM (inactive)	22.9 µM (inactive)	18.8 µM (inactive)	> 100 µM (inactive)
O=C1/C(=C\c2cccc(Oc3ccccc3)c2)S(=O)(=O)C(c2ccccc2)N1c1cc(Cl)ccc1Cl (stereo not given)	18 µM (inactive)	24.7 µM (inactive)	3.05 µM (inactive)	4.6 µM (inactive)	21	5.96 µM (inactive)	33.7 µM (inactive)	22.9 µM (inactive)	16.5 µM (inactive)	4.13 µM (inactive)	28.7 µM (inactive)	10.3 µM (inactive)	3.84 µM (inactive)	32.4 µM (inactive)	18.5 µM (inactive)	16 µM (inactive)	3.83 µM (inactive)	20.3 µM (inactive)	16.5 µM (inactive)	15.2 µM (inactive)
CCOC(=O)c1c2cccccc-2nc1Nc1cccc2c(C)ccnc12	> 10 µM (inactive)	> 10 µM (inactive)	4.88 µM (inactive)	5.12 µM (inactive)	6.31	4.89 µM (inactive)	> 10 µM (inactive)	> 10 µM (inactive)	> 10 µM (inactive)	8.24 µM (inactive)	> 10 µM (inactive)	> 10 µM (inactive)	5.16 µM (inactive)	5.75 µM (inactive)	> 10 µM (inactive)	> 10 µM (inactive)	> 10 µM (inactive)	2.66 µM (inactive)	> 10 µM (inactive)	9.77 µM (inactive)
Cc1ccnc2nc(-c3ccc(F)cc3)cc(O)c12	> 100 µM (inactive)	36.2 µM (inactive)	75.9 µM (inactive)	16.9 µM (inactive)	5.08	18.7 µM (inactive)	72.4 µM (inactive)	7.23 µM (inactive)	28.4 µM (inactive)	24.5 µM (inactive)	> 80.7 µM (inactive)	3.51 µM (inactive)	> 71.4 µM (inactive)	> 80.4 µM (inactive)	74.6 µM (inactive)	> 78.7 µM (inactive)	33.7 µM (inactive)	> 72.6 µM (inactive)	38 µM (inactive)	16 µM (inactive)
COc1ccc2[nH]c3c(C)c4c(c(C)c3c2c1)CN(C)C=C4	1.97 µM (inactive)	9.23 µM (inactive)	3.76 µM (inactive)	2.61 µM (inactive)	23.4	3.93 µM (inactive)	0.24 µM (active)	1.35 µM (inactive)	8.77 µM (inactive)	4.53 µM (inactive)	12.1 µM (inactive)	15 µM (inactive)	0.65 µM (active)	11.5 µM (inactive)	0.175 µM (active)	0.333 µM (active)	1.35 µM (inactive)	2.07 µM (inactive)	0.219 µM (active)	3.3 µM (inactive)
